Experimental data reported in ChEMBL document CHEMBL4118101 (Bioorg Med Chem, 2018).
≈ marks a conversion by molar mass, not a printed value.

Columns and labels:
Candida parapsilosis [1] = assay: Antifungal activity against Candida parapsilosis isolate CP1 measured after 48 hrs by CLSI M27-A3 protocol based method; format: functional; conditions: for MIC: Lodderomyces parapsilosis, isolate CP1, 48 h
Nakaseomyces glabratus [2] = assay: Antifungal activity against Candida glabrata isolate CG2 measured after 48 hrs by CLSI M27-A3 protocol based method; format: functional
Candida parapsilosis [3] = assay: Antifungal activity against Candida parapsilosis ATCC 22019 measured after 48 hrs by CLSI M27-A3 protocol based method; format: functional; conditions: for MIC: Lodderomyces parapsilosis, ATCC 22019, 48 h
Candida parapsilosis [4] = assay: Antifungal activity against Candida parapsilosis isolate CP3 measured after 48 hrs by CLSI M27-A3 protocol based method; format: functional; conditions: for MIC: Lodderomyces parapsilosis, isolate CP3, 48 h
Cryptococcus neoformans [5] = assay: Antifungal activity against Cryptococcus neoformans isolate CN3 measured after 48 hrs by CLSI M27-A3 protocol based method; format: functional
Nakaseomyces glabratus [6] = assay: Antifungal activity against Candida glabrata isolate CG3 measured after 48 hrs by CLSI M27-A3 protocol based method; format: functional
Candida albicans [7] = assay: Antifungal activity against fluconazole/ITC-resistant Candida albicans ATCC 90819 measured after 48 hrs by CLSI M27-A3 protocol based method; format: functional
Cryptococcus neoformans [8] = assay: Antifungal activity against Cryptococcus neoformans isolate CN2 measured after 48 hrs by CLSI M27-A3 protocol based method; format: functional
Candida albicans [9] = assay: Antifungal activity against fluconazole/ITC-susceptible Candida albicans ATCC MYA-2876 measured after 48 hrs by CLSI M27-A3 protocol based method; format: functional; conditions: for MIC: Candida albicans, ATCC MYA-2876, 48 h
Pichia kudriavzevii = assay: Antifungal activity against Candida krusei ATCC 6258 measured after 48 hrs by CLSI M27-A3 protocol based method; format: functional; conditions: for MIC: Pichia kudriavzevii, ATCC 6258, 48 h
Candida albicans [10] = assay: Antifungal activity against fluconazole/ITC-susceptible Candida albicans ATCC MYA-2310 measured after 48 hrs by CLSI M27-A3 protocol based method; format: functional
Candida parapsilosis [11] = assay: Antifungal activity against Candida parapsilosis isolate CP2 measured after 48 hrs by CLSI M27-A3 protocol based method; format: functional; conditions: for MIC: Lodderomyces parapsilosis, isolate CP2, 48 h
Candida albicans [12] = assay: Antifungal activity against Candida albicans ATCC 64124 measured after 48 hrs by CLSI M27-A3 protocol based method; format: functional
Nakaseomyces glabratus [13] = assay: Antifungal activity against Candida glabrata isolate CG1 measured after 48 hrs by CLSI M27-A3 protocol based method; format: functional
Nakaseomyces glabratus [14] = assay: Antifungal activity against Candida glabrata ATCC 2001 measured after 48 hrs by CLSI M27-A3 protocol based method; format: functional, CBS 138
Cryptococcus neoformans [15] = assay: Antifungal activity against Cryptococcus neoformans isolate CN1 measured after 48 hrs by CLSI M27-A3 protocol based method; format: functional; conditions: isolate CN1, 48 h
Candida albicans [16] = assay: Antifungal activity against fluconazole/ITC-resistant Candida albicans ATCC MYA-1237 measured after 48 hrs by CLSI M27-A3 protocol based method; format: functional; conditions: Candida albicans, ATCC MYA-1237, 48 h; read-out: MIC
Candida albicans [17] = assay: Antifungal activity against fluconazole/ITC-resistant Candida albicans ATCC MYA-1003 measured after 48 hrs by CLSI M27-A3 protocol based method; format: functional; conditions: Candida albicans, ATCC MYA-1003, 48 h; read-out: MIC
Candida albicans [18] = assay: Antifungal activity against Candida albicans ATCC 10231 measured after 48 hrs by CLSI M27-A3 protocol based method; format: functional; conditions: ATCC 10231, 48 h
Aspergillus terreus = assay: Antifungal activity against Aspergillus terreus ATCC MYA-3633 measured after 48 hrs by CLSI M38-A2 protocol based method; format: functional; conditions: ATCC MYA-3633, 48 h
Aspergillus flavus = assay: Antifungal activity against Aspergillus flavus ATCC MYA-3631 measured after 48 hrs by CLSI M38-A2 protocol based method; format: functional; conditions: ATCC MYA-3631, 48 h
Aspergillus nidulans = assay: Antifungal activity against Aspergillus nidulans ATCC 38163 measured after 48 hrs by CLSI M38-A2 protocol based method; format: functional; conditions: ATCC 38163, 48 h
Candida albicans [19] = assay: Antifungal activity against Candida albicans ATCC 10231 measured after 48 hrs in presence of 10% FBS by CLSI M27-A3 protocol based method; format: functional; conditions: Candida albicans, ATCC 10231, 48 h
[20] = Nakaseomyces glabratus, isolate CG2, 48 h, read-out: MIC
[21] = Cryptococcus neoformans, isolate CN3, 48 h, read-out: MIC
[22] = Nakaseomyces glabratus, 48 h, read-out: MIC
[23] = Candida albicans, ATCC 90819, 48 h, read-out: MIC
[24] = Cryptococcus neoformans, isolate CN2, 48 h, read-out: MIC
[25] = Candida albicans, ATCC MYA-2310, 48 h, read-out: MIC
[26] = Candida albicans, ATCC 64124, 48 h, read-out: MIC
[27] = Nakaseomyces glabratus, CBS 138, 48 h, read-out: MIC

OC(Cn1cncn1)(Cn1cncn1)c1ccc(F)cc1F [FLUCONAZOLE]
MIC=<50 (Candida parapsilosis [1]): 3.2 µM (≈ 0.98 µg/mL) | MIC (Nakaseomyces glabratus [2]): >102.1 µM | MIC=<50 (Candida parapsilosis [3]): 6.4 µM (≈ 1.96 µg/mL) | MIC=<50 (Candida parapsilosis [4]): 3.2 µM (≈ 0.98 µg/mL) | MIC (Cryptococcus neoformans [5]): >102.1 µM | MIC (Nakaseomyces glabratus [6]): >102.1 µM | MIC (Candida albicans [7]): >408.1 µM | MIC (Cryptococcus neoformans [8]): >102.1 µM | MIC=<50 (Candida albicans [9]): 50.9 µM (≈ 15.6 µg/mL) | MIC=<50 (Pichia kudriavzevii): >102.2 µM | MIC (Candida albicans [10]): >408.1 µM | MIC=<50 (Candida parapsilosis [11]): 3.2 µM (≈ 0.98 µg/mL) | MIC (Candida albicans [12]): >408.1 µM | MIC (Nakaseomyces glabratus [13]): >102.1 µM | MIC (Nakaseomyces glabratus [14]): >=102.2 - 204.1 uM

CC[C@H](C)C[C@H](C)CCCCCCCCC(=O)N[C@H]1C[C@@H](O)[C@@H](NCCN)NC(=O)[C@@H]2[C@@H](O)CCN2C(=O)[C@H]([C@H](O)CCN)NC(=O)[C@H]([C@H](O)[C@@H](O)c2ccc(O)cc2)NC(=O)[C@@H]2C[C@@H](O)CN2C(=O)[C@H]([C@@H](C)O)NC1=O [CASPOFUNGIN]
MIC (Candida parapsilosis [1]): 0.4 µM (≈ 0.437 µg/mL) | MIC (Nakaseomyces glabratus [2]; [20]): 0.2 µM (≈ 0.219 µg/mL) | MIC (Candida parapsilosis [3]): 1.6 µM (≈ 1.75 µg/mL) | MIC (Candida parapsilosis [4]): 0.4 µM (≈ 0.437 µg/mL) | MIC (Cryptococcus neoformans [5]; [21]): 12.9 µM (≈ 14.1 µg/mL) | MIC (Nakaseomyces glabratus [6]; [22]): 0.8 µM (≈ 0.875 µg/mL) | MIC (Cryptococcus neoformans [15]): 12.9 µM (≈ 14.1 µg/mL) | MIC (Candida albicans [7]; [23]): 0.1 µM (≈ 0.109 µg/mL) | MIC (Cryptococcus neoformans [8]; [24]): 25.8 µM (≈ 28.2 µg/mL) | MIC (Candida albicans [9]): 0.05 µM (≈ 0.0547 µg/mL) | MIC (Pichia kudriavzevii): 0.4 µM (≈ 0.437 µg/mL) | MIC (Candida albicans [10]; [25]): 0.1 µM (≈ 0.109 µg/mL) | MIC (Candida parapsilosis [11]): 0.4 µM (≈ 0.437 µg/mL) | MIC (Candida albicans [16]): 0.2 µM (≈ 0.219 µg/mL) | MIC (Candida albicans [12]; [26]): 0.2 µM (≈ 0.219 µg/mL) | MIC (Nakaseomyces glabratus [13]; [22]): 1.6 µM (≈ 1.75 µg/mL) | MIC (Nakaseomyces glabratus [14]; [27]): 0.05 µM (≈ 0.0547 µg/mL) | MIC (Candida albicans [17]): 0.4 µM (≈ 0.437 µg/mL) | MIC (Candida albicans [18]): 0.8 µM (≈ 0.875 µg/mL) | MIC (Aspergillus terreus): > 25.8 µM | MIC (Aspergillus flavus): > 25.8 µM | MIC (Aspergillus nidulans): > 25.8 µM

CCCCCCN(CCCCCC)CC(O)(Cn1cncn1)c1ccc(F)cc1F (configuration not stated)
MIC (Candida parapsilosis [1]): > 74.1 µM | MIC (Nakaseomyces glabratus [2]; [20]): > 74.1 µM | MIC (Candida parapsilosis [3]): 74.1 µM (≈ 31.3 µg/mL) | MIC (Candida parapsilosis [4]): > 74.1 µM | MIC (Cryptococcus neoformans [5]; [21]): 37.1 µM (≈ 15.7 µg/mL) | MIC (Nakaseomyces glabratus [6]; [22]): > 74.1 µM | MIC (Cryptococcus neoformans [15]): > 74.1 µM | MIC (Candida albicans [7]; [23]): > 74.1 µM | MIC (Cryptococcus neoformans [8]; [24]): > 74.1 µM | MIC (Candida albicans [9]): > 74.1 µM | MIC (Pichia kudriavzevii): > 74.1 µM | MIC (Candida albicans [10]; [25]): > 74.1 µM | MIC (Candida parapsilosis [11]): > 74.1 µM | MIC (Candida albicans [16]): > 74.1 µM | MIC (Candida albicans [12]; [26]): > 74.1 µM | MIC (Nakaseomyces glabratus [13]; [22]): > 74.1 µM | MIC (Nakaseomyces glabratus [14]; [27]): > 74.1 µM | MIC (Candida albicans [17]): > 74.1 µM | MIC (Candida albicans [18]): > 74.1 µM | MIC (Aspergillus terreus): > 74.1 µM | MIC (Aspergillus flavus): > 74.1 µM | MIC (Aspergillus nidulans): > 74.1 µM

OC(CNC1CCCCCCC1)(Cn1cncn1)c1ccc(F)cc1F (configuration not stated)
MIC (Candida parapsilosis [1]): 2.7 µM (≈ 0.984 µg/mL) | MIC (Nakaseomyces glabratus [2]; [20]): 42.8 µM (≈ 15.6 µg/mL) | MIC (Candida parapsilosis [3]): 10.7 µM (≈ 3.9 µg/mL) | MIC (Candida parapsilosis [4]): 5.4 µM (≈ 1.97 µg/mL) | MIC (Cryptococcus neoformans [5]; [21]): 42.8 µM (≈ 15.6 µg/mL) | MIC (Nakaseomyces glabratus [6]; [22]): 85.8 µM (≈ 31.3 µg/mL) | MIC (Cryptococcus neoformans [15]): 21.4 µM (≈ 7.8 µg/mL) | MIC (Candida albicans [7]; [23]): 85.8 µM (≈ 31.3 µg/mL) | MIC (Cryptococcus neoformans [8]; [24]): > 85.8 µM | MIC (Candida albicans [9]): > 85.8 µM | MIC (Pichia kudriavzevii): 85.8 µM (≈ 31.3 µg/mL) | MIC (Candida albicans [10]; [25]): 10.7 to 85.8 µM (≈ 3.9 to 31.3 µg/mL) | MIC (Candida parapsilosis [11]): 2.7 µM (≈ 0.984 µg/mL) | MIC (Candida albicans [16]): 85.8 µM (≈ 31.3 µg/mL) | MIC (Candida albicans [12]; [26]): 85.8 µM (≈ 31.3 µg/mL) | MIC (Nakaseomyces glabratus [13]; [22]): 85.8 µM (≈ 31.3 µg/mL) | MIC (Nakaseomyces glabratus [14]; [27]): 85.8 µM (≈ 31.3 µg/mL) | MIC (Candida albicans [17]): > 85.8 µM | MIC (Candida albicans [18]): 85.8 µM (≈ 31.3 µg/mL) | MIC (Aspergillus terreus): > 85.8 µM | MIC (Aspergillus flavus): 85.8 µM (≈ 31.3 µg/mL) | MIC (Aspergillus nidulans): > 85.8 µM

C[C@@H]1[C@H](O)[C@@H](C)/C=C/C=C/C=C/C=C/C=C/C=C/C=C/[C@H](O[C@@H]2O[C@H](C)[C@@H](O)[C@H](N)[C@@H]2O)C[C@@H]2O[C@](O)(C[C@@H](O)C[C@@H](O)[C@H](O)CC[C@@H](O)C[C@@H](O)CC(=O)O[C@H]1C)C[C@H](O)[C@H]2C(=O)O [AMPHOTERICIN B]
MIC (Candida parapsilosis [3]): 2.1 µM (≈ 1.94 µg/mL) | MIC (Candida albicans [7]; [23]): 1.1 µM (≈ 1.02 µg/mL) | MIC (Candida albicans [9]): 2.1 µM (≈ 1.94 µg/mL) | MIC (Candida albicans [10]; [25]): 2.1 µM (≈ 1.94 µg/mL) | MIC (Candida albicans [19]): 7.8 µg/mL | MIC (Nakaseomyces glabratus [14]; [27]): 2.1 µM (≈ 1.94 µg/mL)
